Where a name gives a salt, the structure may show the parent alone.
Biological target: T1, PKD1 (Homo sapiens, UniProt Q15139)
T1 construct: GST; purchased Enzo Life sciences (Farmingdale, NY)
T1 sequence (Q15139 1-912): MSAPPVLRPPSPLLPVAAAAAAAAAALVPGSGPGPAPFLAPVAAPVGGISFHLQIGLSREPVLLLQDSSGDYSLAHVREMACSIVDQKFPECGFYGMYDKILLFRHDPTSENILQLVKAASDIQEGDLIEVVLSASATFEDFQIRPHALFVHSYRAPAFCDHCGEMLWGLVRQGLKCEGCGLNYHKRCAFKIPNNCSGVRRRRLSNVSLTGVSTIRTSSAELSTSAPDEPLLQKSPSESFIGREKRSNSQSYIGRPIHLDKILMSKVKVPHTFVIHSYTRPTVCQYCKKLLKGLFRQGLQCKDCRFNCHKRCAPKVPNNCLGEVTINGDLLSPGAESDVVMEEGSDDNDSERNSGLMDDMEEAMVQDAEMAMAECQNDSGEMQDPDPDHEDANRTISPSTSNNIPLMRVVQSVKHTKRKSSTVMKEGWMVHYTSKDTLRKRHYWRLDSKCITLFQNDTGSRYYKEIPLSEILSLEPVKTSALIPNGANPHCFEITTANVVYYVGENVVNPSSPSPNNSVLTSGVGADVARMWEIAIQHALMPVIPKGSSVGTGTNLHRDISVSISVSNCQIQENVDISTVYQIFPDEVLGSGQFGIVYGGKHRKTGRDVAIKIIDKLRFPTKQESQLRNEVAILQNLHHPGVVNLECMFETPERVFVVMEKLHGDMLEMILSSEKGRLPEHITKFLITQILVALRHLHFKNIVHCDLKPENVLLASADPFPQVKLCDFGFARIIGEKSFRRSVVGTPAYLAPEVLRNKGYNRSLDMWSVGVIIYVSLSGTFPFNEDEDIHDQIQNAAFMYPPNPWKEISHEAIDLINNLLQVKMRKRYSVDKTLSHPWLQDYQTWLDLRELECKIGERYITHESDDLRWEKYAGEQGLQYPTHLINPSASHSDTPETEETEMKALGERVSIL
Assay: In vitro radiometric PKD1 screening assay at 1 µM
Format: biochemical
Settings: 1 µM; targeted kinase inhibitor library screen; relative to DMSO
Protocol: Phosphorylation of HDAC5 was detected in a kinase reaction having 1 µCi [γ-^32P] […] The reaction was incubated at 30°C for 10 minutes and 25 µL of the reaction was spotted on Whatman P81 filter paper. The filter paper was washed 3 times in 0.5% phosphoric acid, air dried and counted using Beckman LS6500 multipurpose scintillation counter. Percent PKD1 inhibition was graphed using GraphPad Prism software 5.0.

% PKD1 Inhibition [%]	Compound
47	O=C1Nc2cc(Br)ccc2/C1=C1/Nc2ccccc2/C1=N\O [BIO]
45	NC(=O)c1ccc(-c2nc(-c3ccc4c(c3)OCCO4)c(-c3ccccn3)[nH]2)cc1 [D 4476]
68	Cc1ccccc1C(=O)c1ccc(Nc2ccc(Br)cc2N)cc1Cl [EO 1428]
66	Cl.Cl.O=S(=O)(NCCNC/C=C/c1ccc(Br)cc1)c1cccc2cnccc12 [H 89 Dihydrochloride]
72	CS(=O)(=O)O.Cn1cc(C2=C(c3cn(CCCSC(=N)N)c4ccccc34)C(=O)NC2=O)c2ccccc21 [Ro 31-8220 Mesylate]
74	Fc1ccc(Cl)cc1-c1nc(Nc2ccncc2)c2nccnc2n1 [SD 208]

Compound	% PKD1 Inhibition [%]
O=C1NC(=O)c2c1c1c3ccccc3[nH]c1c1[nH]c3ccccc3c21 [Arcyriaflavin A]	75
O=C1NC(=O)c2c1c1c3ccccc3n3c1c1c2c2ccccc2n1C1CCC3O1 [SB 218078]	85

Same assay, conditions: 1 µM; targeted kinase inhibitor library screen; relative to DMSO; read-out: % PKD1 Inhibition

inhibition at 1 µM [%]	Compound
41	O=S(=O)(c1cccc2cnccc12)N1CCCNCC1 [Fasudil hydrochloride]
74	Oc1c2ccccc2c2c3c(cccc13)N=N2 [SP 600125]

Same assay, conditions: SAR of synthesized 1-NA-PP1 analogs

PKD1 inhibitory activity, SAR result in words	Compound
ablated the PKD1 activity	CNc1ncnc2c1c(-c1cccc3ccccc13)nn2C(C)(C)C [Compound 1a, 1-(t-Butyl)-N-methyl-3-(naphthalen-1-yl)-1H-pyrazolo[3,4-d]pyrimidin-4-amine]
did not show an increase in potency	COc1ccc(-c2nn(C)c3nc(Cl)nc(N)c23)cc1 [Compound 1j, 6-Chloro-3-(4-methoxyphenyl)-1-methyl-1H-pyrazolo[3,4-d]pyrimidin-4-amine]
did not show an increase in potency	CNc1nc(Cl)nc2c1c(-c1ccc(OC)cc1)nn2C [Compound 1k, 6-Chloro-3-(4-methoxyphenyl)-N,1-dimethyl-1H-pyrazolo[3,4-d]pyrimidin-4-amine]
did not show an increase in potency	CNc1nc(Cl)nc2c1c(-c1ccc(OC(F)(F)F)cc1)nn2C [Compound 1m, 6-Chloro-N,1-dimethyl-3-(4-(trifluoromethoxy)phenyl)-1H-pyrazolo[3,4-d]pyrimidin-4-amine]
did not show an increase in potency	CNc1ncnc2c1c(-c1ccc(-c3ccccc3)cc1)nn2C [Compound 1p, 3-([1,1'-Biphenyl]-4-yl)-N,1-dimethyl-1H-pyrazolo[3,4-d]pyrimidin-4-amine]

Same assay, conditions: read-out: inhibition of PKD1 activity

inhibition at 1 µM [%]	Compound
32	Cn1nc(-c2cccc3ccccc23)c2c(N)ncnc21 [Compound 1f, 1-Methyl-3-(naphthalen-1-yl)-1H-pyrazolo[3,4-d]pyrimidin-4-amine]

Biological target: T2, PKCδ (Homo sapiens, UniProt Q05655)
T2 construct: purchased SignalChem (Richmond, BC, Canada)
T2 sequence (Q05655 whole entry): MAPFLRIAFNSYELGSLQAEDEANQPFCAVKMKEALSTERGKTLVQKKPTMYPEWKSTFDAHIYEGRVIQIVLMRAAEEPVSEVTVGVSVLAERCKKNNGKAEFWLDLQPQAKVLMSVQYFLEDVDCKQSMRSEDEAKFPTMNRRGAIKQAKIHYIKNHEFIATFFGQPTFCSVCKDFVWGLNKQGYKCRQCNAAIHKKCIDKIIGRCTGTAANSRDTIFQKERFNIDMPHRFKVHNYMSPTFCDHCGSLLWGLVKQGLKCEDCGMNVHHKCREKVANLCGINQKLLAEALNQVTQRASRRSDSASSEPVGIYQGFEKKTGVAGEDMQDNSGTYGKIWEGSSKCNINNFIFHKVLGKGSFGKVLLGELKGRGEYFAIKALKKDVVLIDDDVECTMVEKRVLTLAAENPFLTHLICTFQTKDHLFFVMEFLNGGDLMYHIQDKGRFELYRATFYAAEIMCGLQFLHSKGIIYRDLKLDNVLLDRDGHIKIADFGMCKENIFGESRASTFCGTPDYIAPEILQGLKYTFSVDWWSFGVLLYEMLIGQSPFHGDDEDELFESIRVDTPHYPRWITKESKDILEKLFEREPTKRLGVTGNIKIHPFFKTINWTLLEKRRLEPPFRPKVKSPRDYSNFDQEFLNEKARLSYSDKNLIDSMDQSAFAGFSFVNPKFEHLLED
Assay: In vitro radiometric PKC kinase assay
Format: biochemical
Settings: 0.1, 1 and 10 µM
Protocol: (§1) The PKC kinase assay was carried out by co-incubating 1 µCi [γ-^32P]ATP, 20 µM ATP, 50 ng of purified PKCα or PKCδ and 5 µg of myelin basic protein 4–14, 0.25 mg/mL bovine serum albumin, 0.1 mg/mL phosphatidylcholine/phosphatidylserine (80/20%) (1 µM), 1 µM phorbol dibutyrate in 50 µL of kinase buffer containing 50 mM Tris-HCl, pH 7.5, 4 mM MgCl2 and 10 mM β-mercaptoethanol. For the CAMK assay, 50 ng of CAMKIIα and 2 µg syntide-2 substrate in 50 µL kinase buffer were incubated with 0.1 mM MgCl2, 1 µCi of [γ-^32P] ATP, 70 µM ATP. 0.5 mM CaCl2 and 30 ng/µL calmodulin were preincubated for 15 min on ice and then added in the kinase reaction. The reactions were incubated at 30°C for 10 min and 25 µL of the reaction was spotted on Whatman P81 filter paper. The filter paper was washed 3 times in 0.5% phosphoric acid, air dried and counted using Beckman LS6500 multipurpose scintillation counter.

Compound	inhibition of PKCδ, in words
CN(C)CCCn1cc(C2=C(c3c[nH]c4ccccc34)C(=O)NC2=O)c2ccccc21 [GF109203X, reference compound]	potently and concentration-dependently inhibited

Biological target: T3, PKCα (Homo sapiens, UniProt P17252)
T3 construct: purchased SignalChem (Richmond, BC, Canada)
Assay: In vitro radiometric PKC kinase assay
Format: biochemical
Settings: 0.1, 1 and 10 µM
Protocol: as §1

Compound	inhibition of PKCα, in words
CN(C)CCCn1cc(C2=C(c3c[nH]c4ccccc34)C(=O)NC2=O)c2ccccc21 [GF109203X, reference compound]	potently and concentration-dependently inhibited

Test system: not given
Assay: not given
Settings: not given

melting point [°C]	Compound
152.4 to 156.3	CNc1ncnc2c1c(-c1cccc3ccccc13)nn2C(C)(C)C [Compound 1a, 1-(t-Butyl)-N-methyl-3-(naphthalen-1-yl)-1H-pyrazolo[3,4-d]pyrimidin-4-amine]
89.3 to 91.2	CNc1ncnc2c1c(-c1ccc(OC)cc1)nn2C(C)(C)C [Compound 1c, 1-(t-Butyl)-3-(4-methoxyphenyl)-N-methyl-1H-pyrazolo[3,4-d]pyrimidin-4-amine]
185 to 188	COc1ccc(-c2nn(C)c3ncnc(N)c23)cc1 [Compound 1h, 3-(4-Methoxyphenyl)-1-methyl-1H-pyrazolo[3,4-d]pyrimidin-4-amine]
> 250	COc1ccc(-c2nn(C)c3nc(Cl)nc(N)c23)cc1 [Compound 1j, 6-Chloro-3-(4-methoxyphenyl)-1-methyl-1H-pyrazolo[3,4-d]pyrimidin-4-amine]
159.3 to 160.9	CNc1nc(Cl)nc2c1c(-c1ccc(OC)cc1)nn2C [Compound 1k, 6-Chloro-3-(4-methoxyphenyl)-N,1-dimethyl-1H-pyrazolo[3,4-d]pyrimidin-4-amine]
189.9 to 192.3	CNc1nc(Cl)nc2c1c(-c1ccc(F)cc1)nn2C [Compound 1o, 6-Chloro-3-(4-fluorophenyl)-N,1-dimethyl-1H-pyrazolo[3,4-d]pyrimidin-4-amine]

Reference: article PMC3781056, “New Pyrazolopyrimidine Inhibitors of Protein Kinase D as Potent Anticancer Agents for Prostate Cancer Cells” (PLoS ONE, 2013)
